The structures appear in SMILES notation. In brackets after ≈: the same amount, converted by molar mass. Where only a bound is given, the exact number is not on record here.

This passage reports MIC results from DBAASP.

What all share (test): ≥ marks a high value that may be exact or a test limit, other limits are often not marked, values filed in µg/mL are converted to µM
The test system of assay [1] is Agrobacterium tumefaciens GV3101.
The test system of assay [2] is Methylobacterium sp.
In assay [3] the test system is Xanthomonas citri.
Assay [4] relates to Bacillus subtilis ATCC 62037.
Assay [5] has as its system Candida albicans ATCC 10231.
In assay [6] the test system is Cryptococcus neoformans ATCC 34881.
For assay [7], the system named is Escherichia coli ATCC 27325.
Assay [8] deals with Pseudomonas putida ATCC 17426.
For assay [9], the system named is Saccharomyces cerevisiae ATCC 44774.
In assay [10] the test system is Serratia sp. ATCC 21074.
For assay [11], the system named is Staphylococcus aureus ATCC 15752.
The subject of assay [12] is Streptococcus mutans ATCC 25175.
Assay [13] relates to Acinetobacter baumannii ATCC 19606.
The subject of assay [14] is Bordetella bronchiseptica CUN 11844-99.
Assay [15] deals with Escherichia coli ATCC 25922.
In assay [16] the test system is Pseudomonas aeruginosa ATCC 27853.
Assay [17] concerns Pseudomonas aeruginosa CUN 4158-02.
Assay [18] has as its system Staphylococcus aureus ATCC 25923.
For assay [19], the system named is Staphylococcus aureus ATCC 43300.
For assay [20], the system named is Staphylococcus aureus CUN 3792-99.
Assay [21] has as its system Stenotrophomonas maltophilia CUN 3998-00.
In assay [22] the test system is Escherichia coli HP101BA 7601c.
The subject of assay [23] is Klebsiella pneumoniae PTCC 1388.
For assay [24], the system named is Micrococcus luteus PTCC 1625.
In assay [25] the test system is Staphylococcus aureus PTCC 1431.
Assay [26] relates to Bacillus subtilis 168.
Assay [27] relates to Candida albicans ATCC 90028.
Assay [28] concerns Candida glabrata ATCC 2001.
Assay [29] has as its system Candida tropicalis ATCC 13803.
Assay [30] has as its system Escherichia coli ATCC 25726.
For assay [31], the system named is Klebsiella pneumoniae ATCC 13883.
Assay [32] concerns Pseudomonas aeruginosa PAO1.
Assay [33] has as its system Staphylococcus aureus MU50.
Assay [34] relates to Staphylococcus aureus Newman.
Assay [35] relates to Staphylococcus aureus UAMS-1.
Assay [36] relates to Staphylococcus aureus USA 200.
The test system of assay [37] is Staphylococcus aureus USA 300.
For assay [38], the system named is Staphylococcus aureus USA 400.
For assay [39], the system named is Staphylococcus epidermidis 1457.

One may read the MIC as the least concentration at which growth counts as inhibited. A low value points to greater potency. Consider `CC[C@H](C)[C@H](N)C(=O)N[C@@H](Cc1ccccc1)C(=O)NCC(=O)N[C@@H](C)C(=O)N[C@H](C(=O)N[C@@H](CC(C)C)C(=O)N1CCC[C@H]1C(=O)N[C@@H](CC(C)C)C(=O)N[C@@H](C)C(=O)N[C@@H](CC(C)C)C(=O)NCC(=O)N[C@@H](C)C(=O)N[C@@H](CC(C)C)C(=O)N[C@@H](CCCCN)C(=O)N[C@@H](CC(N)=O)C(=O)N[C@@H](CC(C)C)C(=O)N[C@H](C(=O)N[C@@H](CCCCN)C(=O)O)[C@@H](C)CC)[C@@H](C)CC` [IFGAILPLALGALKNLIK], for which the MIC came to 17 µM (≈ 31.7 µg/mL) in assay [1], 9 µM (≈ 16.8 µg/mL) in [2] and 4 µM (≈ 7.46 µg/mL) in assay [3].
As for `CC[C@H](C)[C@H](NC(=O)[C@H](CCCN=C(N)N)NC(=O)[C@H](CCC(=O)O)NC(=O)[C@@H]1CCCN1C(=O)[C@@H]1CCCN1C(=O)[C@H](Cc1ccc(O)cc1)NC(=O)[C@H](CC(C)C)NC(=O)[C@H](Cc1ccccc1)NC(=O)[C@H](CCC(N)=O)NC(=O)[C@@H]1CCCN1C(=O)CNC(=O)[C@@H](NC(=O)[C@H](Cc1ccc(O)cc1)NC(=O)[C@H](CCC(N)=O)NC(=O)[C@H](CC(N)=O)NC(=O)[C@H](CCCCN)NC(=O)[C@H](CCCN=C(N)N)NC(=O)[C@H](CCC(=O)O)NC(=O)[C@H](CO)NC(=O)[C@H](Cc1ccc(O)cc1)NC(=O)[C@@H]1CCCN1C(=O)[C@H](CCCN=C(N)N)NC(=O)[C@H](CCCCN)NC(=O)[C@H](CC(=O)O)NC(=O)[C@H](CCCCN)NC(=O)[C@H](CCC(N)=O)NC(=O)[C@@H](N)CCCN=C(N)N)[C@@H](C)O)C(=O)N1CCC[C@H]1C(=O)N1CCC[C@H]1C(=O)O` [RQKDKRPYSERKNQYTGPQFLYPPERIPP], the minimal inhibitory concentration (MIC) in assay [4] was determined as 2.23 µM (≈ 8 µg/mL); in assay [5] it was 3.34 µM (≈ 12 µg/mL); in [6], 4.46 µM (≈ 16 µg/mL); in assay [7] it was 2.23 µM (≈ 8 µg/mL); in [8], 3.34 µM (≈ 12 µg/mL); in assay [9], 2.23 µM (≈ 8 µg/mL). The MIC in [10] was 3.34 µM (≈ 12 µg/mL); in assay [11], 3.34 µM (≈ 12 µg/mL); in assay [12], 5.57 µM (≈ 20 µg/mL).
Take `NCCCC[C@H](NC(=O)CNC(=O)[C@H](CCCN=C(N)N)NC(=O)[C@H](Cc1ccc(O)cc1)NC(=O)[C@H](CCCN=C(N)N)NC(=O)[C@H](Cc1c[nH]c2ccccc12)NC(=O)[C@H](CCCN=C(N)N)NC(=O)[C@H](Cc1ccccc1)NC(=O)[C@H](CCCCN)NC(=O)[C@H](CCCCN)NC(=O)[C@H](Cc1c[nH]c2ccccc12)NC(=O)[C@H](CCCN=C(N)N)NC(=O)[C@H](CCCN=C(N)N)NC(=O)[C@H](CS)NC(=O)CN)C(=O)N[C@@H](Cc1ccccc1)C(=O)N[C@@H](Cc1c[nH]c2ccccc12)C(=O)N[C@@H](Cc1ccccc1)C(=O)N[C@@H](Cc1c[nH]c2ccccc12)C(=O)N[C@@H](CS)C(=O)NCC(N)=O` [GCRRWKKFRWRYRGKFWFWCG]: the minimum inhibitory concentration (MIC) was 22 µM (≈ 64 µg/mL) in [13]; 11 µM (≈ 32 µg/mL) in assay [14]; 44 µM (≈ 128 µg/mL) in [15]; 44 µM (≈ 128 µg/mL) in assay [16]; no less than 44 µM in [17]; 22 µM (≈ 64 µg/mL) in [18]. Besides, the MIC in [19] amounted to 11 µM (≈ 32 µg/mL); in [20], 22 µM (≈ 64 µg/mL); in [21], 22 µM (≈ 64 µg/mL).
`CC(C)C[C@H](NC(=O)[C@H](C)NC(=O)[C@H](CC(N)=O)NC(=O)[C@H](CC(C)C)NC(=O)[C@@H](N)Cc1ccccc1)C(=O)N[C@@H](CCCCN)C(=O)N[C@@H](CC(N)=O)C(=O)N[C@@H](Cc1ccccc1)C(=O)N[C@@H](C)C(=O)N[C@@H](CCCCN)C(=O)N[C@H](C(=O)N[C@@H](C)C(=O)NCC(=O)N[C@@H](CCCCN)C(=O)N[C@@H](CCCN=C(N)N)C(=O)N[C@@H](CC(C)C)C(=O)N[C@@H](CCCCN)C(=O)N[C@@H](CO)C(=O)N[C@@H](CC(C)C)C(=O)N[C@@H](CC(C)C)C(=O)N[C@@H](CC(N)=O)C(=O)O)[C@@H](C)O` [FLNALKNFAKTAGKRLKSLLN]: the minimal inhibitory concentration (MIC) in [22] is 6.4 µM (≈ 15 µg/mL); in [23], 7.3 µM (≈ 17.1 µg/mL); in assay [24], 4.7 µM (≈ 11 µg/mL); in assay [25], 5.3 µM (≈ 12.4 µg/mL).
As to `CC[C@H](C)[C@H](N)C(=O)N1CCC[C@H]1C(=O)N1CCC[C@H]1C(=O)N[C@@H](Cc1ccccc1)C(=O)N[C@H](C(=O)N[C@@H](CCCCN)C(=O)N[C@@H](CCCCN)C(=O)N[C@H](C(=O)N[C@@H](CC(C)C)C(=O)N[C@H](C(=O)N[C@H](C(=O)N[C@H](C(=O)N[C@@H](Cc1ccccc1)C(N)=O)C(C)C)[C@@H](C)O)[C@@H](C)O)C(C)C)[C@@H](C)CC` [IPPFIKKVLTTVF], the MIC was no less than 50 µM in assay [26]; 25 µM (≈ 37.5 µg/mL) in [5]; 25 µM (≈ 37.5 µg/mL) in [27]; 12.5 µM (≈ 18.8 µg/mL) in assay [28]; 4.38 µM (≈ 6.58 µg/mL) in assay [29]; 25 µM (≈ 37.5 µg/mL) in assay [30]. Besides, the MIC in assay [15] was 12.5 µM (≈ 18.8 µg/mL); in assay [31], no less than 50 µM; in assay [32] it was greater than 50 µM; in assay [18], 50 µM (≈ 75.1 µg/mL); in assay [33] it was 25 µM (≈ 37.5 µg/mL); in [34] it was 25 µM (≈ 37.5 µg/mL). The minimum inhibitory concentration (MIC) came out at 25 µM (≈ 37.5 µg/mL) in [35]; 25 µM (≈ 37.5 µg/mL) in [36]; 25 µM (≈ 37.5 µg/mL) in assay [37]; 25 µM (≈ 37.5 µg/mL) in assay [38]; 12.5 µM (≈ 18.8 µg/mL) in assay [39].
